Measured values from PubChem BioAssay (NCI).
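Results reflect a 48-hour exposure of cells in 96-well plates to compound at five concentrations. The concentration for 50% growth inhibition is given as GI50. Definition used: TGI = concentration required for complete inhibition of growth.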

Legend:
Experiment in all cases: NCI-60 cell line screen, 48 h
786-0 renal = tested on: 786-0 renal
A498 renal = tested on: A498 renal
A549 NSCLC = tested on: A549 NSCLC
ACHN renal = tested on: ACHN renal
BT-549 breast = tested on: BT-549 breast
CAKI-1 renal = tested on: CAKI-1 renal
CCRF-CEM leukemia = tested on: CCRF-CEM leukemia
COLO 205 colon = tested on: COLO 205 colon
DU-145 prostate = tested on: DU-145 prostate
EKVX NSCLC = tested on: EKVX NSCLC
HCC-2998 colon = tested on: HCC-2998 colon
HCT-116 colon = tested on: HCT-116 colon
HCT-15 colon = tested on: HCT-15 colon
HL-60(TB) leukemia = tested on: HL-60(TB) leukemia
HOP-62 NSCLC = tested on: HOP-62 NSCLC
HOP-92 NSCLC = tested on: HOP-92 NSCLC
HS 578T breast = tested on: HS 578T breast
HT29 colon = tested on: HT29 colon
IGROV1 ovarian = tested on: IGROV1 ovarian
LOX IMVI melanoma = tested on: LOX IMVI melanoma
M14 melanoma = tested on: M14 melanoma
MALME-3M melanoma = tested on: MALME-3M melanoma
MCF7 breast = tested on: MCF7 breast
MDA-MB-231 breast = tested on: MDA-MB-231 breast
MDA-MB-435 = tested on: MDA-MB-435
MDA-MB-468 breast = tested on: MDA-MB-468 breast
MOLT-4 leukemia = tested on: MOLT-4 leukemia
NCI-H226 lung = tested on: NCI-H226 lung
NCI-H23 lung = tested on: NCI-H23 lung
NCI-H460 lung = tested on: NCI-H460 lung
NCI-H522 lung = tested on: NCI-H522 lung
NCI/ADR-RES ovarian = tested on: NCI/ADR-RES ovarian
OVCAR-3 ovarian = tested on: OVCAR-3 ovarian
OVCAR-4 ovarian = tested on: OVCAR-4 ovarian
OVCAR-5 ovarian = tested on: OVCAR-5 ovarian
OVCAR-8 ovarian = tested on: OVCAR-8 ovarian
PC-3 prostate = tested on: PC-3 prostate
RPMI-8226 leukemia = tested on: RPMI-8226 leukemia
RXF 393 renal = tested on: RXF 393 renal
SF-268 CNS = tested on: SF-268 CNS
SF-295 CNS = tested on: SF-295 CNS
SF-539 CNS = tested on: SF-539 CNS
SK-MEL-2 melanoma = tested on: SK-MEL-2 melanoma
SK-MEL-28 melanoma = tested on: SK-MEL-28 melanoma
SK-MEL-5 melanoma = tested on: SK-MEL-5 melanoma
SK-OV-3 ovarian = tested on: SK-OV-3 ovarian
SN12C renal = tested on: SN12C renal
SNB-19 CNS = tested on: SNB-19 CNS
SNB-75 CNS = tested on: SNB-75 CNS
SR leukemia = tested on: SR leukemia
TK-10 renal = tested on: TK-10 renal
U251 CNS = tested on: U251 CNS
UACC-257 melanoma = tested on: UACC-257 melanoma
UACC-62 melanoma = tested on: UACC-62 melanoma
UO-31 renal = tested on: UO-31 renal

COc1ccc2c(c1)c(-c1cc(N)n3nc(-c4c[nH]c5ccccc45)cc3n1)cn2C
GI50 (786-0 renal): 1610 nM
TGI (786-0 renal): 3000 nM
GI50 (A498 renal): 14000 nM
TGI (A498 renal): 27600 nM
GI50 (A549 NSCLC): 1860 nM
TGI (A549 NSCLC): 3700 nM
GI50 (ACHN renal): 1700 nM
TGI (ACHN renal): 3100 nM
GI50 (BT-549 breast): 12800 nM
TGI (BT-549 breast): 25600 nM
GI50 (CAKI-1 renal): 1820 nM
TGI (CAKI-1 renal): 3520 nM
GI50 (CCRF-CEM leukemia): 2140 nM
TGI (CCRF-CEM leukemia): 5420 nM
GI50 (COLO 205 colon): 2020 nM
TGI (COLO 205 colon): 3830 nM
GI50 (DU-145 prostate): 3290 nM
TGI (DU-145 prostate): 10200 nM
GI50 (EKVX NSCLC): 1700 nM
TGI (EKVX NSCLC): 3630 nM
GI50 (HCC-2998 colon): 1630 nM
TGI (HCC-2998 colon): 3040 nM
GI50 (HCT-116 colon): 1720 nM
TGI (HCT-116 colon): 3090 nM
GI50 (HCT-15 colon): 1310 nM
TGI (HCT-15 colon): 2750 nM
GI50 (HL-60(TB) leukemia): 1760 nM
TGI (HL-60(TB) leukemia): 3780 nM
GI50 (HOP-62 NSCLC): 2020 nM
TGI (HOP-62 NSCLC): 3920 nM
GI50 (HOP-92 NSCLC): 1870 nM
TGI (HOP-92 NSCLC): 3860 nM
GI50 (HS 578T breast): 3110 nM
TGI (HS 578T breast): 17600 nM
GI50 (HT29 colon): 1770 nM
TGI (HT29 colon): 3470 nM
GI50 (IGROV1 ovarian): 2030 nM
TGI (IGROV1 ovarian): 3880 nM
GI50 (LOX IMVI melanoma): 1680 nM
TGI (LOX IMVI melanoma): 3040 nM
GI50 (M14 melanoma): 1720 nM
TGI (M14 melanoma): 3250 nM
GI50 (MALME-3M melanoma): 1790 nM
TGI (MALME-3M melanoma): 3180 nM
GI50 (MCF7 breast): 1680 nM
TGI (MCF7 breast): 3350 nM
GI50 (MDA-MB-231 breast): 2070 nM
TGI (MDA-MB-231 breast): 3650 nM
GI50 (MDA-MB-435): 1830 nM
TGI (MDA-MB-435): 3540 nM
GI50 (MDA-MB-468 breast): 1360 nM
TGI (MDA-MB-468 breast): 2690 nM
GI50 (MOLT-4 leukemia): 2050 nM
TGI (MOLT-4 leukemia): 5730 nM
GI50 (NCI-H226 lung): 2130 nM
TGI (NCI-H226 lung): 5110 nM
GI50 (NCI-H23 lung): 1720 nM
TGI (NCI-H23 lung): 3390 nM
GI50 (NCI-H460 lung): 2230 nM
TGI (NCI-H460 lung): 5030 nM
GI50 (NCI-H522 lung): 1780 nM
TGI (NCI-H522 lung): 3500 nM
GI50 (NCI/ADR-RES ovarian): 2080 nM
TGI (NCI/ADR-RES ovarian): 5070 nM
GI50 (OVCAR-3 ovarian): 2020 nM
TGI (OVCAR-3 ovarian): 4280 nM
GI50 (OVCAR-4 ovarian): 2420 nM
TGI (OVCAR-4 ovarian): 5930 nM
GI50 (OVCAR-5 ovarian): 2050 nM
TGI (OVCAR-5 ovarian): 4080 nM
GI50 (OVCAR-8 ovarian): 2050 nM
TGI (OVCAR-8 ovarian): 4770 nM
GI50 (PC-3 prostate): 2560 nM
TGI (PC-3 prostate): 8610 nM
GI50 (RPMI-8226 leukemia): 2370 nM
TGI (RPMI-8226 leukemia): 5740 nM
GI50 (RXF 393 renal): 1500 nM
TGI (RXF 393 renal): 2900 nM
GI50 (SF-268 CNS): 2350 nM
TGI (SF-268 CNS): 5480 nM
GI50 (SF-295 CNS): 1580 nM
TGI (SF-295 CNS): 3010 nM
GI50 (SF-539 CNS): 1630 nM
TGI (SF-539 CNS): 2980 nM
GI50 (SK-MEL-2 melanoma): 1860 nM
TGI (SK-MEL-2 melanoma): 3960 nM
GI50 (SK-MEL-28 melanoma): 1730 nM
TGI (SK-MEL-28 melanoma): 3110 nM
GI50 (SK-MEL-5 melanoma): 1680 nM
TGI (SK-MEL-5 melanoma): 3040 nM
GI50 (SK-OV-3 ovarian): 2580 nM
TGI (SK-OV-3 ovarian): 6430 nM
GI50 (SN12C renal): 1870 nM
TGI (SN12C renal): 3810 nM
GI50 (SNB-19 CNS): 2610 nM
TGI (SNB-19 CNS): 6310 nM
GI50 (SNB-75 CNS): 1760 nM
TGI (SNB-75 CNS): 3800 nM
GI50 (SR leukemia): 1430 nM
TGI (SR leukemia): 6400 nM
GI50 (TK-10 renal): 1760 nM
TGI (TK-10 renal): 3340 nM
GI50 (U251 CNS): 1640 nM
TGI (U251 CNS): 3210 nM
GI50 (UACC-257 melanoma): 1840 nM
TGI (UACC-257 melanoma): 3430 nM
GI50 (UACC-62 melanoma): 1800 nM
TGI (UACC-62 melanoma): 3200 nM
GI50 (UO-31 renal): 1610 nM
TGI (UO-31 renal): 3120 nM
